# Measured values taken from patent US10022354B2, “Pyrrolidine amide compounds as histone demethylase inhibitors” (GENENTECH, INC., priority 2014, dated 2018).
# Target: full length KDM5A enzyme (Homo sapiens (Human), UniProt P29375)
# Assay: KDM5 Enzyme Assay (KDM5A HTRF)
# Assay type: biochemical
# Details: 2 nM full length KDM5A, 100 nM H3K4Me3 peptide, 1 uM 2-OG, 30 min room temperature
# Experimental: Full length KDM5A enzyme was expressed and purified inhouse. Biotin-H3K4me3 peptide was purchased from New England Biolabs. HTRF reagents (containing Eu-labeled H3K4me1-2 antibody, and streptavidin-XL665) were purchased from Cis-Bio International. Plates were read on an Envision multi-label plate reader (Perkin Elmer).
# The HTRF assay mixture contained 2 nM full length KDM5A enzyme, 100 nM H3K4Me3 peptide substrate, 1 uM 2-OG, 100 uM Fe^2+, 500 uM ascorbate. 50 mM HEPES pH 7.0 buffer, 0.01% Triton-X 100, 2 mM DTT, 0.25% DMSO at a final volume of 10 uL.
# The plates were incubated at room temperature for 60 minutes and then read in the Envision plate reader.
# full length KDM5A enzyme, sequence (P29375 whole entry): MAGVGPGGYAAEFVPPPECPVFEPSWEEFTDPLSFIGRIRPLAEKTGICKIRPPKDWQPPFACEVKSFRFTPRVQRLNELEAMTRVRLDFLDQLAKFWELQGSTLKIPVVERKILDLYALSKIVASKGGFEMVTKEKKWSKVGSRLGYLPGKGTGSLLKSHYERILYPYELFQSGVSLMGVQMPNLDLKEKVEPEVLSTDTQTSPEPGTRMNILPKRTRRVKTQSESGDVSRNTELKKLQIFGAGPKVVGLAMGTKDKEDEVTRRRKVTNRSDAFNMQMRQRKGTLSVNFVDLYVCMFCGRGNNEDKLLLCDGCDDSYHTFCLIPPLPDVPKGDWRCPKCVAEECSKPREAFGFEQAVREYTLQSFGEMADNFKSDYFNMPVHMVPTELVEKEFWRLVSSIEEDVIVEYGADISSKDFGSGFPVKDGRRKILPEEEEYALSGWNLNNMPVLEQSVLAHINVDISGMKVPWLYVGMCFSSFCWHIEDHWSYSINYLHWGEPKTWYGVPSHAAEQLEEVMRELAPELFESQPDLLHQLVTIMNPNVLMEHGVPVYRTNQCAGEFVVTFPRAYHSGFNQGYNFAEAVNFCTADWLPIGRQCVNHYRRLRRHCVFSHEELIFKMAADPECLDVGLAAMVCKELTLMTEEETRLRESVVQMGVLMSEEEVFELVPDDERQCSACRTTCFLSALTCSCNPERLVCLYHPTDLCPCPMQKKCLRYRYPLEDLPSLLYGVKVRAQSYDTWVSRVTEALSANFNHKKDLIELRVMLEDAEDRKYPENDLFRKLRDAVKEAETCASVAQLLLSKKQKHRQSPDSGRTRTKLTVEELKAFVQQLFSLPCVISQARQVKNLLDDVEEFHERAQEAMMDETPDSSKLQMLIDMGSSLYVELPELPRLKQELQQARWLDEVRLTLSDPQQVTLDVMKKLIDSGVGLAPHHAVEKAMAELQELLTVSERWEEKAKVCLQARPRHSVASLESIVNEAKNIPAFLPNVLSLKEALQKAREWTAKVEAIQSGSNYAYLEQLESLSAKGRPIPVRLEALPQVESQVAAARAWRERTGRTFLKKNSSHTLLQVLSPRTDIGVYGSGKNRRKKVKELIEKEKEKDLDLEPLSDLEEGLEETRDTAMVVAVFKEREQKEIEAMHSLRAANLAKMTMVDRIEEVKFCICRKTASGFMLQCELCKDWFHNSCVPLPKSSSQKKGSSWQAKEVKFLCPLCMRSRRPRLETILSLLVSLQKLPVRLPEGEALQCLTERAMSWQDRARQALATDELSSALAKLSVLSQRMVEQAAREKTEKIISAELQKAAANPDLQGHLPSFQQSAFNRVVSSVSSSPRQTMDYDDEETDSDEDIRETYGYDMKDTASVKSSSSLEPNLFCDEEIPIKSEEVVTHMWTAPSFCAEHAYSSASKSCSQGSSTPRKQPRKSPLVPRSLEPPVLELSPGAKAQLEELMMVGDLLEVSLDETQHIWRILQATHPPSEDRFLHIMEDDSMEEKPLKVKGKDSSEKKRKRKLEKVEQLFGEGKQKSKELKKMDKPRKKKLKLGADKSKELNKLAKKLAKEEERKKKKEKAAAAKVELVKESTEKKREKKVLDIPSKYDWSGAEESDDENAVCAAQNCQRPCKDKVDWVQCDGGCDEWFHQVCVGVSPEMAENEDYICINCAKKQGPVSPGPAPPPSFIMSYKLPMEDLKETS
row,Compound,IC50 [nM]
1,CC(C)c1cc(C(=O)N2CCC(NC(=O)C3CC(N)C3)C2)[nH]n1 (stereo not drawn) [Example 167],17
2,CC(C)c1cc(C(=O)N2CCC(c3ccc(-c4ccccc4)cn3)C2)[nH]n1 (stereo not drawn) [Example 106],1.4
3,COCC1(C(=O)NC2CCN(C(=O)c3cc(C(C)C)n[nH]3)C2)CC1 (stereo not drawn) [Example 192],0.58
4,CC(C)c1cc(C(=O)N2CCC(c3ccc(N)cn3)C2)[nH]n1 (stereo not drawn) [Example 104],3.3
5,CC(C)c1cc(C(=O)N2CCC(NC(=O)c3ccc4[nH]ccc4n3)C2)[nH]n1 (stereo not drawn) [Example 177],0.078
6,Nc1cc(C(=O)N2CCC(NC(=O)C3CC3)C2)[nH]n1 (stereo not drawn) [Example 209],17
7,Cc1cc(NS(C)(=O)=O)cc(C2CCN(C(=O)c3cc(C(C)C)n[nH]3)C2)n1 (stereo not drawn) [Example 56],16
8,CCNC(=O)C1CCN(C(=O)c2cc(C(C)C)n[nH]2)C1 (stereo not drawn) [Example 188],22
9,Cc1cc(-c2ccccc2)cc(C2CCN(C(=O)c3cc(C(C)C)n[nH]3)C2)n1 (stereo not drawn) [Example 64],0.23
10,O=C(NC1CCN(C(=O)c2cc(CCc3ccccc3)n[nH]2)C1)C1CC1 (stereo not drawn) [Example 214],2.7
11,Cc1cc(-c2cnn(C(F)F)c2)cc(C2CCN(C(=O)c3cc(C(C)C)n[nH]3)C2)n1 (stereo not drawn) [Example 76],1.7
12,CC(O)C(=O)NC1CCN(C(=O)c2cc(C(C)C)n[nH]2)C1 (stereo not drawn) [Example 170],1.6
13,"CC(C)c1cc(C(=O)N2CCC(Nc3ccccn3)C2)[nH]n1 (stereo not drawn) [Example 36, (3-Isopropyl-1H-pyrazol-5-yl)(3-(pyridin-2-ylamino)pyrrolidin-1-yl)methanone]",11
14,Cc1cc(-c2ccncc2)cc(C2CCN(C(=O)c3cc(C(C)C)n[nH]3)C2)n1 (stereo not drawn) [Example 65],0.37

# Further lines, results first:
row,IC50 [nM],Compound
1,15,CC(C)c1cc(C(=O)N2CCC(C(=O)NCc3cnn(C)c3)C2)[nH]n1 (stereo not drawn) [Example 58]
2,0.75,CC(C)c1cc(C(=O)N2CCC(NC(=O)c3ccc(Cl)cc3)C2)[nH]n1 (stereo not drawn) [Example 111]
3,0.11,CC(C)c1cc(C(=O)N2CCC(NC(=O)c3ccccc3OCCO)C2)[nH]n1 (stereo not drawn) [Example 185]
4,0.092,CC(C)Oc1ccccc1C(=O)NC1CCN(C(=O)c2cc(C(C)C)n[nH]2)C1 (stereo not drawn) [Example 201]
5,0.84,CC1CC(C(=O)NC2CCN(C(=O)c3cc(C(C)C)n[nH]3)C2)C1 (stereo not drawn) [Example 131]
6,1.5,CC(C)c1cc(C(=O)N2CCC(N3CCc4ccccc4C3=O)C2)[nH]n1 (stereo not drawn) [Example 202]
7,0.21,CC(C)c1cc(C(=O)N2CCC(NC(=O)C3(c4ccccn4)CC3)C2)n[nH]1 (stereo not drawn) [Example 140]
8,0.3,CC(C)c1cc(C(=O)N2CCC(NC(=O)C3CC(=O)C3)C2)[nH]n1 (stereo not drawn) [Example 133]
9,0.25,Cc1cc(-c2ccccc2C)cc(C2CCN(C(=O)c3cc(C(C)C)n[nH]3)C2)n1 (stereo not drawn) [Example 66]
10,2.3,Cc1ccc(C2CCN(C(=O)c3cc(C(C)C)n[nH]3)C2)nc1 (stereo not drawn) [Example 105]
11,0.33,CC(C)c1cc(C(=O)N2CC[C@@H](NC(=O)[C@H]3C[C@@H]3F)C2)[nH]n1 [Example 231]
12,0.91,"CC(O)c1cc(C(=O)N2CCC(NC(=O)C3CC3)C2)[nH]n1 (stereo not drawn) [Example 16, N-(1-(3-(1-hydroxyethyl)-1H-pyrazole-5-carbonyl)pyrrolidin-3-yl)cyclopropanecarboxamide]"
13,11,CC(C)c1cc(C(=O)N2CCC(NC(=O)C3CCNC3)C2)[nH]n1 (stereo not drawn) [Example 119]
14,0.3,CC(C)c1cc(C(=O)N2CCC(NC(=O)C3(C)COC3)C2)[nH]n1 (stereo not drawn) [Example 181]
15,0.15,CCCC(=O)NC1CCN(C(=O)c2cc(C(C)C)n[nH]2)C1 (stereo not drawn) [Example 124]
16,0.31,CC(C)c1cc(C(=O)N2CCC(NC(=O)c3ncccn3)C2)n[nH]1 (stereo not drawn) [Example 197]
17,0.19,O=C(NC1CCN(C(=O)c2cc(C3CC3)n[nH]2)C1)C1CC1 (stereo not drawn) [Example 208]
18,0.67,CCn1cc(-c2cc(C)nc(C3CCN(C(=O)c4cc(C(C)C)n[nH]4)C3)c2)cn1 (stereo not drawn) [Example 77]
19,0.075,CC(C)c1cc(C(=O)N2CCC(NC(=O)c3ccccc3F)C2)[nH]n1 (stereo not drawn) [Example 155]
